Peptide text beside a SMILES is read from it. * marks the point of attachment. Myristoyl = CCCCCCCCCCCCCC(=O)*
What was measured:
[1] = target: T1, CCR10-eNOS interaction (Homo sapiens, UniProt P46092); assay: Co-IP of CCR10-eNOS interaction in HUVECs stimulated with A23187; type: cell-based; conditions: endothelial cells (HUVECs), pretreatment 50 μM, 5 μM A23187 for 5 minutes, vs control peptide
T1 construct: host or cells: HUVEC (primary human umbilical vein endothelial cells)
T1 sequence (P46092 1-362): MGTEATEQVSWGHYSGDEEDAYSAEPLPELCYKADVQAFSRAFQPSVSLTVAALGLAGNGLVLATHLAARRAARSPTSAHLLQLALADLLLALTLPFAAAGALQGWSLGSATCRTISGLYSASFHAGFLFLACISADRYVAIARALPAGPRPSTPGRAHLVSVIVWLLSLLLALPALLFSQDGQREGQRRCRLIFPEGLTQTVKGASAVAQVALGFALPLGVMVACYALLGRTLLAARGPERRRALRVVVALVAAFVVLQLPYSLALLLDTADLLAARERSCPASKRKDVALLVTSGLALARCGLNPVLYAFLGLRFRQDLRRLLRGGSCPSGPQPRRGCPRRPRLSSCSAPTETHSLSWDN
Procedure: (§1) Immunoblot and Co-Immunoprecipitation (Co-IP). After serum starvation, inhibitors were added 45 minutes prior to stimulation for indicated times at 37° C., and cells were then collected and lysed for western blot analysis. After probing for p-eNOS (Ser1177), p-p85 (Tyr458), p-Src (Tyr 416), and p-ERK (T202/Y204), the same blots were stripped and re-probed for total proteins mentioned above. For detection of CCL28-induced protein levels of β-catenin and Bcl-2, near-confluent endothelial cells were incubated with 500 ng/ml CCL28 for 24 hours in EGM-2 medium containing 1% FBS.
Co-IP Experiments, cells or mouse wounds were collected after treatment, and lysed in 2% ODG in Tris buffer. The homogenates were further prepared for Co-IP experiments as described in the art (Chen, et al. (2018) Mol. Biol. Cell 29(10):1190-1202; Chen, et al. (2020) FASEB J. 34(4):5838-5850; Chen, et al. (2015) Ann. Rheum. Dis. 74:1898-1906).
Therefore, the effect of inhibition of CCR10-eNOS interaction was investigated using a panel of cell-permeable peptides based on the sequence of the predicted interaction domain on eNOS. Similar peptides have been described in determining the solution structure of calmodulin bound to the target peptide of eNOS (Piazza, et al. (2014) Biochemistry 53(8):1241-9; Piazza, et al. (2016) Biochemistry 55(42):5962-71). First, myristoylated 20 amino acid peptide (491-[…]-510 (P1); SEQ ID NO:61) was synthesized based on the sequence of human eNOS (which is conserved in mouse eNOS). […] It was subsequently determined whether truncated versions of the CBD-derived peptide would have the same effect.

[2] = test system: full thickness excisional wounds on mouse dorsal skin; assay: Excisional dermal wound healing in WT C57BL/6 mice; type: in vivo; conditions: for reduction of wound size: compared to control peptide
Procedure: (§2) Mouse Healing Models. All animal procedures were performed in accordance with the Guide for the Care and Use of Laboratory Animals (National Institutes of Health). WT C57BL/6, eNOS^−/− and db/db mice were purchased from Jackson Laboratory (Bar Harbor, Me.). CCR10^−/− mice have been described in the art, see, e.g., Jin, et al. (2011) J. Immunol. 185(10):5723-31. Four 5-mm or two 8-mm full thickness excisional wounds were made on the dorsal skin of mice (male, aged at 9 weeks) using a standard skin biopsy punch under ketamine (100 mg/kg) and xylazine (5 mg/kg) anesthesia. Scrambled myristoylated (Myr−) control or Myr-CBD7 peptides were applied topically to wounds in F-127 gel sold under the tradename PLURONIC® after wounding (Mirza, et al. (2009) Am. J. Pathol. 175:2454-2462). Wound size was determined as previously described (Chen, et al. (2020) FASEB J. 34(4):5838-5850; Zhao, et al. (2016) PLoS ONE. 11:e0146451) and wounds were collected at indicated times for indicated measurements.
Hematoxylin and Eosin (H&E) Staining. H&E staining was performed as described previously (Chignalia, et al. (2015) Am. J. Pathol. 185:1251-1263). Slides with 5 μm tissue sections were baked at 60° C. for 30 minutes and stained with an Autostainer XL (Leica Microsystems, Wetzlar, Germany) using preset protocol. Briefly, slides were deparaffinized in three changes of xylene, rehydrated in 100% and 95% ethanol, […] followed by a brief immersion in High-Def and Bluing to obtain crisp nuclear details. Slides were then incubated in eosin for 2 minutes, dehydrated and mounted with Micromount media (Leica Biosystems). Whole slide images were obtained using Aperio AT2 brightfield scanner (Leica Microsystems, Wetzlar, Germany).
CCL28 (also called mucosa-associated epithelial chemokine) is a CC chemokine that signals via CCR10 as well as CCR3 (Pan, et al. (2000) J. Immunol. 165:2943). CCR10 has been reported to have two functional ligands, CCL27 and CCL28 that are involved in the epithelial immunity (Xiang, et al. (2012) Protein Cell 3:571-580). It was observed that CCL28 and CCR10 levels were highly expressed compared to CCL27 and CCR3 in skin of WT C57BL/6 mice. […] Therefore, it was subsequently investigated whether blockade of CCR10-eNOS interaction with Myr-CBD7 peptide has an effect on wound healing in WT C57BL/6 mice. Four 5 mm diameter full thickness excisional wounds were made on the mouse dorsal skin and 30 μl Myr-CBD7 peptide (50 μM) was topically administrated onto the wounds immediately after creating the punch wound.

[3] = test system: eNOS; assay: eNOS protein level in WT mouse wounds; type: in vivo, WT C57BL/6 mice; conditions: day 7, compared to control peptide
[4] = test system: full thickness excisional wounds on db/db mouse dorsal skin; assay: Excisional dorsal skin wound healing in diabetic db/db mice; type: in vivo
Procedure: as §2
(§3) Two 8 mm full thickness excisional wounds were made on the dorsal skin of diabetic db/db mice and then 50 μl of 50 μM Myr-CBD7 peptide was topically applied. […] Reduced CCR10-eNOS interaction was also observed in the mouse wounds following treatment with Myr-CBD7 peptide as determined by Co-IP (FIG. 6).

[5] = test system: eNOS; assay: eNOS expression in db/db mouse wounds (western blot); type: in vivo, db/db mice; conditions: day 12
Procedure: as §1, §3

[6] = test system: HEK/eNOS cells; assay: NO production in HEK/eNOS cells; type: cell-based, human; conditions: HEK/eNOS cells with/without co-expression of CCR10-GFP, pretreatment, compared with control peptide

CCCCCCCCCCCCCC(=O)N[C@@H](CCCCN)C(=O)N[C@H](C(=O)N[C@@H](CO)C(=O)N[C@@H](C)C(=O)N[C@@H](CO)C(=O)N[C@@H](CC(C)C)C(=O)N[C@@H](CCSC)C(=O)O)[C@@H](C)CC [Myr-CBD7, myr-KISASLM] (Myristoyl-KISASLM-OH) was tested, and the “CCR10-eNOS interaction (Co-IP)” value [1] was “significant reduction”, the “CCR10-eNOS interaction (Co-IP)” value ([1]; listed as P4) was “completely blocked” and the “reduction of wound size” value ([2]; day 5, 30 μl of 50 μM topical) was 20%. The “wound size (FIG. 1)” value ([2]; day 5 and 7, 30 μl (50 μM) per wound, vs Myr-control construct, P<0.05) was “reduced wound size significantly”, the “reduction of wound size” value ([2]; day 7, 30 μl of 50 μM topical) was 35% and the “re-epithelization of the skin wound (H&E stained sections)” value ([2]; day 7, vs control construct) was “associated with re-epithelization of the skin wound”. The wound healing time ([2]; topical administration on dermal wounds) was “decreased”, the “eNOS protein level in wounds” value [3] was “enhanced” and the “decrease of wound healing time” value ([4]; 50 μl of 50 μM topical, vs control peptide) was 4 days. For the same compound, the “reduction of wound size” value ([4]; day 4, compared to control peptide) was 19%, the “reduction of wound size” value ([4]; day 12, compared to control peptide) was 46% and the “wound size (FIG. 5)” value ([4]; from day 4, 30 μl (50 μM) topical, compared with control construct) was “reduces wound size significantly”. The “eNOS expression in wounds” value [5] was “significantly elevated” and the NO production [6] was “elevated significantly”.

Source: patent US20220265759A1, “COMPOSITION AND METHOD FOR PROMOTING WOUND HEALING” (THE BOARD OF TRUSTEES OF THE UNIVERSITY OF ILLIOIS, priority 2019, published 2022)
